Test results: BindingDB's records for PubMed 10496952 (University of Virginia, 1999)
Values joined by “and” are separate entries in the source; they are usually repeats but may differ in a detail not shown here. Equal entries are not always repeated.

Tests used:
Adenosine receptor A3 = molecular target: T1, Adenosine receptor A3 (Homo sapiens, UniProt P0DMS8)
T1 sequence (P0DMS8 whole entry): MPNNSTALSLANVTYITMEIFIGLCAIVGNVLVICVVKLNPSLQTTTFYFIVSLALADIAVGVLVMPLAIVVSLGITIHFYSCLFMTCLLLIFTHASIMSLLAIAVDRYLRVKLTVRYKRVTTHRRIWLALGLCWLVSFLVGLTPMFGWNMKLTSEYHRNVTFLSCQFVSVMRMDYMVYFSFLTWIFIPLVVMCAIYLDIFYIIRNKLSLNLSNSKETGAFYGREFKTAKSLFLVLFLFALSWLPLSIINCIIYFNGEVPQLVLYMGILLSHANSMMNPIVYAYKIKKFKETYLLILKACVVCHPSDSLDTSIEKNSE

Adenosine receptor A2b = molecular target: T2, Adenosine receptor A2b (Homo sapiens, UniProt P29275)
T2 sequence (P29275 whole entry): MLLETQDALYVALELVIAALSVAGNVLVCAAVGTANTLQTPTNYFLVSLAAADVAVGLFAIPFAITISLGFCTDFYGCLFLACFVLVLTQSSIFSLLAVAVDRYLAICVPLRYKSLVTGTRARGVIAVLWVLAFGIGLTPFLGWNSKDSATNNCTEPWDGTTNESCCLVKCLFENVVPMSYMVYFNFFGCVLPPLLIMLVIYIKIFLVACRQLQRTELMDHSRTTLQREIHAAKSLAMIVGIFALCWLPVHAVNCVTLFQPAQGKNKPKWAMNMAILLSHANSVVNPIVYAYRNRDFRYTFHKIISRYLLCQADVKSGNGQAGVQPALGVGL

Adenosine receptor A1 = molecular target: T3, Adenosine receptor A1 (Homo sapiens, UniProt P30542)
T3 sequence (P30542 whole entry): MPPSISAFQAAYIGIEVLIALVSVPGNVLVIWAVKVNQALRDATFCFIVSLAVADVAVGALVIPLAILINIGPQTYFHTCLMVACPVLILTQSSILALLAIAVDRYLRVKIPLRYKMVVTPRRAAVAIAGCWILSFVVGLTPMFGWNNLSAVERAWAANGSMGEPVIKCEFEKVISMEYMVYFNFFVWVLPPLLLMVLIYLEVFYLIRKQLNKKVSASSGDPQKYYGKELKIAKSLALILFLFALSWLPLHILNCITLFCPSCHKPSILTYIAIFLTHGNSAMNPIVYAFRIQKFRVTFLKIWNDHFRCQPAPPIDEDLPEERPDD

Adenosine receptor A2a = Adenosine receptor A2a (Homo sapiens, UniProt P29274)
Sequence of Adenosine receptor A2a (P29274 whole entry): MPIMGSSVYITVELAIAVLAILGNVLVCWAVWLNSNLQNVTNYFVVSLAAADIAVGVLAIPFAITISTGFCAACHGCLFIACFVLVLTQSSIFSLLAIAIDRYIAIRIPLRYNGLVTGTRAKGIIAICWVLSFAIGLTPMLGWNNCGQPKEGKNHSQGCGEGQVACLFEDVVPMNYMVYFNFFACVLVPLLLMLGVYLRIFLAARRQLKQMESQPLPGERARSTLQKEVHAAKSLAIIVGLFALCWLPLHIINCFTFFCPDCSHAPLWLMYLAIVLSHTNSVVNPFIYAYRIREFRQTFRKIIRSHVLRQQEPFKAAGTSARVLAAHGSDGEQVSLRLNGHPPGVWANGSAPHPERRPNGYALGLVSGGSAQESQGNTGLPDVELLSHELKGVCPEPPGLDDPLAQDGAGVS

Compound	Ki (Adenosine receptor A2b)	also measured
CCCn1c(=O)c2nc[nH]c2n(CCC)c1=O	–	Ki (Adenosine receptor A3): 509 nM
CCn1c(=O)c2[nH]c(-c3ccccc3)nc2n(CC)c1=O [1,3-Diethyl-8-phenyl-3,7-dihydro-purine-2,6-dione]	12.3 nM	–
Nc1nc(Cl)nc2c1ncn2[C@@H]1O[C@H](CO)[C@H](O)C1O (stereo partly specified) [2-Chloroadenosine]	> 10000 nM	–
CCCn1c(=O)[nH]c(=O)c2[nH]cnc21 [3-Propylxanthine (enprofylline)]	–	Ki (Adenosine receptor A1): > 10000 nM
CCNC(=O)C(=O)Nc1nc(Nc2ccccc2)c2ncn([C@@H]3O[C@H](CO)[C@@H](O)[C@H]3O)c2n1 [AB-NECA]	> 10000 nM	–
Nc1ccc(CCNc2nc(N)c3ncn(C4OC(CO)C(O)C4O)c3n2)cc1I (stereo unspecified) [CAS_190964]	> 10000 nM	–
CCCn1c(=O)c2[nH]c(-c3ccc(C=CC(=O)O)cc3)nc2n(CCC)c1=O [NSC_129447]	51.6 nM	–
CCCn1c(=O)c2nc(-c3ccc(OCC(=O)O)cc3)[nH]c2n(Cc2ccc(N)c(I)c2)c1=O [NSC_163889]	40 nM and 30 nM	Ki (Adenosine receptor A3): 15 nM; Ki (Adenosine receptor A2a): 95 nM; Ki (Adenosine receptor A1): 70 nM
